Data reported in patent publication US20260200919A1, “SUBSTITUTED AMINOPYRIDINE COMPOUNDS AND METHODS OF TREATING DISEASE USING SAME” (Atavistik Bio, Inc., priority 2023, published 2026).

Key:
[1] = target: T1, human recombinant kinase full-length AKT1 E17K (Homo sapiens, UniProt P31749, E17K); assay: AKT1 E17K kinase assay (TR-FRET, Lance); format: biochemical; conditions: 0.6 nM AKT1 E17K, 50 nM Ulight-CREBtide, either 50 μM ATP or 2 mM ATP (not specified which), 60 min at RT
T1 construct: Purified human recombinant kinase full-length AKT1 E17K was expressed in insect cells; made in house; host or cells: insect cells
T1 sequence (P31749 whole entry E17K): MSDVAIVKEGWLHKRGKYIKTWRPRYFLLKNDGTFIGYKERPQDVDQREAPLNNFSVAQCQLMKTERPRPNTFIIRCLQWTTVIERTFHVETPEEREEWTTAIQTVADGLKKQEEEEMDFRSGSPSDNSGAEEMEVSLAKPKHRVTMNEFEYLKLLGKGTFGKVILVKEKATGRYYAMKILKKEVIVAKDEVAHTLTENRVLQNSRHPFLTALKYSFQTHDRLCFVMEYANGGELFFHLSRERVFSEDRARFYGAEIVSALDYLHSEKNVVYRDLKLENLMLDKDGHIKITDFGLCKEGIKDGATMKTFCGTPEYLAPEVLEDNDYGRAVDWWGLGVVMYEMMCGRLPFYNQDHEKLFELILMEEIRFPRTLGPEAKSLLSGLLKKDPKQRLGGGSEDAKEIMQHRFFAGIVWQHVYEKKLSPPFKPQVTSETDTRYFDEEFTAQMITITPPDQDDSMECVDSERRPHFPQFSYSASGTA
Experimental: AKT1 E17K kinase assay: Inhibitory effects of compounds on AKT1 E17K were undertaken in a 10-pt dose response kinase activity assay measuring phospho-peptide product formation based on TR-FRET signal as described in the following paragraph.
(§1) Purified human recombinant kinase full-length AKT1 E17K was expressed in insect cells and activated in vitro by PDPK1. Ulight™-CREBtide (PerkinElmer, catalog number TRF0107) was used as the peptide substrate. The reaction buffer consisted of 50 mM HEPES pH 7.5, 10 mM MgCl2, 0.01% Triton X-100, 0.01% BSA, 2 mM DTT, 0.6 nM AKT1 E17K, 50 nM. Ulight™ CREBtide and either 50 μM ATP or 2 mM ATP. The compound solution was prepared as 10 mM DMSO stock. […] Final DMSO concentration in the assay was 1%. […] The reaction was stopped after 60 min of incubation at RT by the addition of 10 μL of Detection Mix (PerkinElmer, #CR97-100) consisting of Europium-anti-phospho-CREB (Ser133) (Perkin Elmer, catalog numberTRF0200). Incubation with the detection mix for a further 60 min allowed binding of antibody to the phospho-Ulight™ CREBtide. The fluorescence emissions at 620 nm and 665 nm after excitation at […] was measured using Envision reader. The ratio of the emissions at 665 nm and at 620 nm provided the measure for the amount of phosphorylated CREBtide product of AKT1 E17K kinase activity.

[2] = target: T2, human recombinant kinase full-length wildtype AKT1 (Homo sapiens, UniProt P31749); assay: AKT1 kinase assay (wildtype, TR-FRET, Lance); format: biochemical; conditions: 0.6 nM wildtype AKT1, 50 nM Ulight-CREBtide, either 50 μM ATP or 2 mM ATP (not specified which), 60 min at RT
T2 construct: Purified human recombinant kinase full-length wildtype AKT1 was expressed in insect cells; made in house; host or cells: insect cells
T2 sequence (P31749 whole entry): as the sequence (P31749 whole entry E17K) above, with K17E counted along it
Experimental: AKT1 kinase assay: Inhibitory effects of compounds on wildtype AKT1 were undertaken in a 10-pt dose response kinase activity assay measuring phospho-peptide product formation based on TR-FRET signal as described in the following paragraph.
as §1, with “full-length wildtype” for “full-length”, “AKT1” for “AKT1 E17K”, “Ulight™—CREBtide” for “Ulight™-CREBtide”, “AKT1,” for “AKT1 E17K,”, “nM Ulight™-CREBtide” for “nM. Ulight™ CREBtide”

Row | Structure (SMILES) | IC50 [1] | IC50 [2]
1 | CC(C(=O)O)c1cccc(C(=O)NCc2ccc(-n3c(-c4cccnc4N)nc4ccc(-c5ccccc5)nc43)cc2)n1 (stereo not drawn) [Compound 38, 2-(6-((4-(2-(2-aminopyridin-3-yl)-5-phenyl-3H-imidazo[4,5-b]pyridin-3-yl)benzyl)carbamoyl)pyridin-2-yl) propanoic acid] | > 500 nM | > 500 nM
2 | Nc1ncccc1-c1nc2ccc(-c3ccccc3)nc2n1-c1ccc(CNC(=O)c2ccc(CCC(=O)O)cc2)cc1 [Compound 40, 3-(4-((4-(2-(2-aminopyridin-3-yl)-5-phenyl-3H-imidazo[4,5-b]pyridin-3-yl)benzyl)carbamoyl)phenyl) propanoic acid] | < 50 nM | < 500 nM
3 | Nc1ncccc1-c1nc2ccc(-c3ccccc3)nc2n1-c1ccc(CNC(=O)c2cccc(CCC(=O)O)c2)cc1 [Compound 42, 3-(3-((4-(2-(2-aminopyridin-3-yl)-5-phenyl-3H-imidazo[4,5-b]pyridin-3-yl)benzyl)carbamoyl)phenyl) propanoic acid] | 50 to 200 nM | < 500 nM
4 | NC(=O)Cc1cccc(C(=O)NCc2ccc(-n3c(-c4cccnc4N)nc4ccc(-c5ccccc5)nc43)cc2)c1 [Compound 43, 3-(2-amino-2-oxoethyl)-N-(4-(2-(2-aminopyridin-3-yl)-5-phenyl-3H-imidazo[4,5-b]pyridin-3-yl)benzyl)benzamide] | > 500 nM | < 500 nM
5 | CCNC(=O)Cc1cccc(C(=O)NCc2ccc(-n3c(-c4cccnc4N)nc4ccc(-c5ccccc5)nc43)cc2)c1 [Compound 44, N-(4-(2-(2-aminopyridin-3-yl)-5-phenyl-3H-imidazo[4,5-b]pyridin-3-yl)benzyl)-3-(2-(ethylamino)-2-oxoethyl)benzamide] | > 500 nM | < 500 nM
6 | Nc1ncccc1-c1nc2ccc(-c3ccccc3)nc2n1-c1ccc(CNC(=O)c2cccc(CC(=O)O)c2)nc1 [Compound 48, 2-(3-(((5-(2-(2-aminopyridin-3-yl)-5-phenyl-3H-imidazo[4,5-b]pyridin-3-yl)pyridin-2-yl)methyl)carbamoyl)phenyl)acetic acid] | > 500 nM | > 500 nM
7 | Nc1ncccc1-c1nc2ccc(-c3ccccc3)nc2n1-c1ccc(CNC(=O)c2cccc(CC(=O)O)c2)cn1 [Compound 49, 2-(3-(((6-(2-(2-aminopyridin-3-yl)-5-phenyl-3H-imidazo[4,5-b]pyridin-3-yl)pyridin-3-yl)methyl)carbamoyl)phenyl)acetic acid] | > 500 nM | > 500 nM
8 | Nc1ncccc1-c1nc2ccc(-c3ccccc3)nc2n1-c1ccc(CNC(=O)c2cccc(CC(=O)O)c2)c(F)c1 [Compound 50, 2-(3-((4-(2-(2-aminopyridin-3-yl)-5-phenyl-3H-imidazo[4,5-b]pyridin-3-yl)-2-fluorobenzyl)carbamoyl)phenyl)acetic acid] | > 500 nM | > 500 nM
9 | Nc1ncccc1-c1nc2ccc(-c3ccccc3)cc2n1-c1ccc(CNC(=O)c2cccc(CC(=O)O)c2)cc1 [Compound 51, 2-(3-((4-(2-(2-aminopyridin-3-yl)-6-phenyl-1H-benzo[d]imidazol-1-yl)benzyl)carbamoyl)phenyl)acetic acid] | 50 to 200 nM | < 500 nM
10 | Nc1ncccc1-c1nc2ccc(-c3ccccc3)nc2n1-c1ccc(C(=O)NCc2cccc(CC(=O)O)c2)cc1 [Compound 52, 2-(3-((4-(2-(2-aminopyridin-3-yl)-5-phenyl-3H-imidazo[4,5-b]pyridin-3-yl)benzamido)methyl)phenyl)acetic acid] | > 500 nM | > 500 nM
11 | Nc1ncccc1-c1nc2ccc(-c3ccccc3)nc2n1-c1ccc(NC(=O)c2ccc(C(=O)O)cc2)cc1 [Compound 53] | < 50 nM | < 500 nM
12 | Nc1ncccc1-c1nc2ccc(-c3ccccc3)nc2n1-c1ccc(NC(=O)c2cccc(C(=O)O)c2)cc1 [Compound 54, 3-[[4-[2-(2-amino-3-pyridyl)-5-phenyl-imidazo[4,5-b]pyridin-3-yl]phenyl]carbamoyl]benzoic acid] | < 50 nM | < 500 nM
